Reference: ChEMBL document CHEMBL3045401, “(Naphthalen-1-yloxy)-acetic acid benzylidene/(1-phenyl-ethylidene)-hydrazide derivatives: synthesis, antimicrobial evaluation, and QSAR studies” (Med Chem Res, 2012)
In brackets after ≈: the same amount, converted by molar mass.

How the values were obtained:
Candida albicans = assay: Antimicrobial activity against Candida albicans after 2 days by serial dilution method; format: functional
[1] = Cytotoxicity against HEL; format: cell-based; conditions: human, HEL cells
[2] = Cytotoxicity against Homo sapiens (human) MT4 cells after 4 days by MTT assay; format: cell-based
Aspergillus niger = assay: Antimicrobial activity against Aspergillus niger after 7 days by serial dilution method; format: functional
Human alphaherpesvirus 3 [3] = assay: Antiviral activity against thymidine kinase-deficient Human herpesvirus 3 infected in HEL cells assessed as inhibition of viral plaque formation; format: functional, organism-based; conditions: Human alphaherpesvirus 3, HEL
Bacillus subtilis = assay: Antimicrobial activity against Bacillus subtilis after 24 hr by serial dilution method; format: functional
[4] = system: Human immunodeficiency virus 1; assay: Antiviral activity against Human immunodeficiency virus 1 IIIB infected human MT4 cells assessed as inhibition of virus-induced cytopathic effect after 4 days by MTT assay; format: functional, organism-based; conditions: MT4, 96 h
Human betaherpesvirus 5 [5] = assay: Antiviral activity against Human herpesvirus 5 strain AD169 infected human HEL cells assessed as reduction in the virus plaque formation; format: functional, organism-based; conditions: Human betaherpesvirus 5, AD169, HEL
Human betaherpesvirus 5 [6] = assay: Antiviral activity against Human herpesvirus 5 Davis infected human HEL cells assessed as reduction in the virus plaque formation; format: functional, organism-based; conditions: Human betaherpesvirus 5, Davis
Human alphaherpesvirus 3 [7] = assay: Antiviral activity against thymidine kinase-positive Human herpesvirus 3 infected in HEL cells assessed as inhibition of viral plaque formation; format: functional, organism-based; conditions: Human alphaherpesvirus 3, HEL
[8] = system: Human immunodeficiency virus 2; assay: Antiviral activity against Human immunodeficiency virus type 2 (ISOLATE ROD) infected human MT4 cells assessed as inhibition of virus-induced cytopathic effect after 4 days by MTT assay; format: functional, organism-based; conditions: Human immunodeficiency virus 2, ISOLATE ROD, MT4, 96 h
Staphylococcus aureus = assay: Antimicrobial activity against Staphylococcus aureus after 24 hr by serial dilution method; format: functional
[9] = Octanol-water partition coefficient, log P of the compound; format: physicochemical
Escherichia coli = assay: Antimicrobial activity against Escherichia coli after 24 hr by serial dilution method; format: functional
[10] = Cytotoxicity against HEL assessed as minimum concentration required to cause morphological changes; format: cell-based; conditions: human, HEL cells

SMILES	-logMIC (Candida albicans)	CC50 [1] [µg/mL]	CC50 at 96 h [2] [µg/mL]	-logMIC (Aspergillus niger)	EC50 (Human alphaherpesvirus 3 [3]) [µg/mL]	-logMIC (Bacillus subtilis)	EC50 [4] [µg/mL]	EC50 (Human betaherpesvirus 5 [5]) [µg/mL]	EC50 (Human betaherpesvirus 5 [6]) [µg/mL]	EC50 (Human alphaherpesvirus 3 [7]) [µg/mL]	EC50 [8] [µg/mL]	-logMIC (Staphylococcus aureus)	logP [9]	-logMIC (Escherichia coli)	MCC [10] [µg/mL]
CCOc1ccc(/C=N/NC(=O)COc2cccc3ccccc23)cc1O	1.46	18.1 (≈ 49.7 µM)	6.23 (≈ 17.1 µM)	1.46	> 4	1.46	> 6.23	> 20	> 20	> 4	> 6.23	1.16	3.82	1.46	100
COc1cc(/C=N/NC(=O)COc2cccc3ccccc23)cc(OC)c1O	1.78	52.8 (≈ 139 µM)	16.3 (≈ 42.8 µM)	1.48	> 20	1.48	> 16.3	> 20	> 20	16.9 (≈ 44.4 µM)	> 16.3	1.18	3.23	1.48	100
CSc1ccc(/C=N/NC(=O)COc2cccc3ccccc23)cc1	1.45	> 100	68.3 (≈ 195 µM)	0.54	> 20	0.85	> 68.3	> 20	> 20	> 20	> 68.3	0.85	4.11	0.85	≥ 100
Cc1ccc(/C=N/NC(=O)COc2cccc3ccccc23)cc1	0.52	80.1 (≈ 252 µM)	83.9 (≈ 263 µM)	0.82	> 20	0.52	> 83.9	> 4	> 4	> 20	> 83.9	1.12	4.49	0.52	20
NNC(=O)COc1ccc2ccccc2c1 [2-NAPHTHOXY ACETIC ACID HYDRAZIDE]	0.64	–	–	0.64	–	0.64	–	–	–	–	–	0.94	–	0.94	–
Nc1nc2c(ncn2COCCO)c(=O)[nH]1 [ACYCLOVIR]	–	120 (≈ 533 µM)	–	–	23 (≈ 102 µM)	–	–	–	–	0.44 (≈ 1.95 µM)	–	–	–	–	> 100
O=c1[nH]c(=O)n([C@H]2C[C@H](O)[C@@H](CO)O2)cc1/C=C/Br [BRIVUDINE]	–	173 (≈ 519 µM)	–	–	20 (≈ 60 µM)	–	–	–	–	0.0093 (≈ 0.0279 µM)	–	–	–	–	> 100
Nc1ccn(C[C@@H](CO)OCP(=O)(O)O)c(=O)n1.O.O [CIDOFOVIR]	–	35.4	–	–	–	–	–	0.8	0.3	–	–	–	–	–	> 100
OC(Cn1cncn1)(Cn1cncn1)c1ccc(F)cc1F [FLUCONAZOLE]	2.64	–	–	2.64	–	–	–	–	–	–	–	–	–	–	–
Nc1nc2c(ncn2COC(CO)CO)c(=O)[nH]1 [GANCICLOVIR]	–	60.5 (≈ 237 µM)	–	–	–	–	–	2.68 (≈ 10.5 µM)	1.79 (≈ 7.01 µM)	–	–	–	–	–	> 100
Cc1ccnc2c1NC(=O)c1cccnc1N2C1CC1 [NEVIRAPINE]	–	–	> 4	–	–	–	–	–	–	–	> 4	–	–	–	–
CCn1cc(C(=O)O)c(=O)c2cc(F)c(N3CCNCC3)cc21 [NORFLOXACIN]	–	–	–	–	–	2.61	–	–	–	–	–	2.61	–	2.61	–
Cc1cn([C@H]2C[C@H](N=[N+]=[N-])[C@@H](CO)O2)c(=O)[nH]c1=O [ZIDOVUDINE]	–	–	> 25	–	–	–	0.002 (≈ 0.00748 µM)	–	–	–	–	–	–	–	–
